# Results: PubChem BioAssay AID588780 (Sanford-Burnham Center for Chemical Genomics, 2011)
# The source made the active and inactive calls.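 How the source made its calls: active means compounds whose fitted half-maximal concentration in the cell-protection dose series is at or below a set limit; inactive means the rest.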
# Tested on: H9c2 cardiomyocytes, 2-deoxyglucose stress, ATP luminescence, 2 h
# Experiment: protection of cardiomyocytes from 2-deoxyglucose injury, dose response, cell-based, 2-deoxyglucose stress, uHTS hits (AID 588780)
row,Structure (SMILES),IC50
1,C[C@@H](NC(=O)c1nc[nH]c1C(=O)NCC(=O)OCc1ccccc1)c1ccccc1,> 79 µM (inactive)
2,CCOc1cccc(Nc2cc3n(c(=O)n2)CCc2cc(OC)c(OC)cc2-3)c1,29.9 µM
3,CCOC(=O)C1CCN(c2cc3c(cc2NC(=O)c2ccc(F)cc2)n(C)c(=O)n3C)CC1,21.2 µM
4,COc1cccc(-c2nn3c(-c4ccccn4)nnc3s2)c1,13.6 µM
5,COc1cccc(N2CC(C(=O)NCc3n[nH]c(=O)c4ccccc34)CC2=O)c1 (stereo not drawn),> 79 µM (inactive)
6,O=C(N/N=C/c1ccccn1)c1cccs1,> 79 µM (inactive)
7,CC(OC(=O)Cc1n[nH]c(=O)c2ccccc12)C(=O)Nc1ccccc1[N+](=O)[O-] (stereo not drawn),49.1 µM (inactive)
8,COc1cc(/C=N/NC(=O)c2cccnc2)ccc1OS(=O)(=O)c1cc(C)ccc1C,> 79 µM (inactive)
9,N#C/C(=C\c1cn(-c2ccccc2)nc1-c1cccnc1)c1nnc2n1CCCCC2,21.7 µM
10,O=C(CSc1nc2ccccc2c(=O)[nH]1)N1CCN(S(=O)(=O)c2ccccc2)CC1,> 79 µM (inactive)
11,NC(=O)c1c(NC(=O)Cn2nc(C(=O)O)c3ccccc3c2=O)sc2c1CCC2,> 79 µM (inactive)
12,CC1(C)CC2CC(C)(CN2C(=O)COC(=O)c2n[nH]c(=O)c3ccccc23)C1 (stereo not drawn),> 79 µM (inactive)
13,C/C(=N\NC(=O)c1cccnc1)c1ccc(OC2OCCOC2Oc2ccc(/C(C)=N/NC(=O)c3cccnc3)cc2)cc1 (stereo not drawn),13.1 µM
14,Cc1cc(C)cc(OCC(=O)Nc2cccc(-c3nc4ncccc4o3)c2)c1,> 79 µM (inactive)
15,CCOC(=O)c1cc2c(=O)n3ccccc3nc2n(Cc2ccco2)c1=NC(=O)c1cccnc1,22.3 µM
16,O=C1c2ccccc2NC(c2ccc(Cl)cc2Cl)N1O (stereo not drawn),35 µM (inactive)
17,CCOc1ccc(NC(=O)c2cc3c(=O)n(C)c4ccccc4c3n2C)cc1,11.5 µM
18,CC1Cc2ccccc2C(=O)N1 (stereo not drawn),> 79 µM (inactive)
19,COc1ccccc1C(=O)Nc1nc(-c2ccc3c(c2)OCCO3)cs1,> 79 µM (inactive)
20,Cc1ccc(C(C)C)c(OCC(=O)NNC(=O)Cn2[nH]c(=O)c3ccccc3c2=O)c1,75.1 µM (inactive)
21,COc1cc2[nH]c(=O)n3nc(-c4ccccc4)nc3c2cc1OC,> 79 µM (inactive)
22,COc1ccc(CNc2nn3c(-c4cccc(C(=O)N(C)C)c4)cnc3s2)cc1,> 79 µM (inactive)
23,Nc1c(C(=O)N/N=C/c2cccnc2)oc2nc(-c3ccccc3)cc(-c3ccco3)c12,> 79 µM (inactive)
24,COc1cccc(/C=N/NC(=O)c2nc(-c3ccccc3)cc(-c3ccccc3)n2)c1,> 79 µM (inactive)

row,Structure (SMILES),IC50
1,CCc1c(C)nc(Nc2nc(C)c3ccc(OC)cc3n2)[nH]c1=O,> 79 µM (inactive)
2,CCOC(=O)c1c(NC(=O)COC(=O)c2ccc(O)cc2)sc(C(=O)N(C)C)c1C,> 79 µM (inactive)
3,CC(=O)Nc1ccc(Nc2nc(-c3sc(NC(C)=O)nc3C)cs2)cc1,14.4 µM
4,CC(=C/c1ccc(C(C)C)cc1)/C=N/NC(=O)c1ccncc1,> 79 µM (inactive)
5,CCOC(=O)Cc1csc(SCc2cc(=O)oc3cc(O)ccc23)n1,51.9 µM (inactive)
6,O=C(CCc1nc2ccccc2c(=O)[nH]1)NCC(=O)Nc1ccc(F)c(F)c1,> 79 µM (inactive)
7,CCN(CC)c1ccc(C(=O)NNC(=O)CCc2nc3ccccc3c(=O)[nH]2)cc1,> 79 µM (inactive)
8,CCOc1ccc(S(=O)(=O)N(C)CCO)cc1-c1nc2c(C(C)(C)C)nn(C)c2c(=O)[nH]1,26.9 µM
9,CCCCn1c(NC(=O)c2ccccc2)nc2ccccc21,> 79 µM (inactive)
10,CCCOc1ccc2[nH]c(C(=O)N/N=C/c3cc(OC)c(OC)c(OC)c3)cc2c1,9.02 µM
11,Cc1cnc(NC(=O)CSc2nc3ccccc3c(=O)[nH]2)s1,> 79 µM (inactive)
12,Nc1c(C(=O)NC2CCCC2)c2nc3ccccc3nc2n1N,> 79 µM (inactive)
13,O=C(OCC(=O)N1CCCCCC1)c1n[nH]c(=O)c2ccccc12,> 79 µM (inactive)
14,Cc1[nH]c2ccccc2c1/C=N/NC(=O)c1cc(-c2ccccc2)n[nH]1,> 79 µM (inactive)
15,CC(C)CCN(C(=O)CNC(=O)c1ccco1)C(C(=O)NC1CCCCC1)c1ccco1 (stereo not drawn),37.5 µM (inactive)
16,c1ccc(N2CCOCC2)c(Nc2nc3ccccc3n3cnnc23)c1,23.4 µM
17,Cc1cc(C)c2ccc(NN)nc2c1O,> 79 µM (inactive)
18,CCOC(=O)C1CCN(C(=O)c2ccc3c(=O)n4nc(Nc5ccccc5OC)sc4nc3c2)CC1,19.3 µM
19,O=C(CN1C(=O)C2CC=CCC2C1=O)Nc1nc(-c2ccc(F)c(F)c2)cs1 (stereo not drawn),> 79 µM (inactive)
20,O=C(O)c1nn(CCOc2ccccc2F)c(=O)c2ccccc12,25.7 µM
21,COc1ccc(NC(=O)c2cc3c(=O)n(C)c4ccccc4c3n2C)cc1OC,> 79 µM (inactive)
22,C=CCC[C@H](Cc1ccc(F)cc1)C(=O)OC[C@@H](Cc1c[nH]c2ccccc12)NC(=O)[C@@H](CC=C)CC(=O)NCCO,> 79 µM (inactive)
23,CC(=O)Nc1cccc(-c2cc(NC(C)=O)c3ncc(-c4ccccc4)n3c2)c1,12.8 µM
24,COc1ccc(OC)c(C2CC(=O)c3c([nH]c(C(=O)OCC4CCCO4)c3C)C2)c1 (stereo not drawn),> 79 µM (inactive)

row,Structure (SMILES),IC50
1,Cc1ccc2nc(-c3ccccc3)cc(C(=O)NNC(=O)c3csc(N4CCOCC4)n3)c2c1,> 79 µM (inactive)
2,CCCCn1nc(NC(=O)c2cccs2)c2cc3cc(OC)ccc3nc21,> 79 µM (inactive)
3,O=C(CNC(=O)c1nc[nH]c1C(=O)NCC(=O)OCc1ccccc1)OCc1ccccc1,39.5 µM (inactive)
4,COC(=O)N1C(=O)[C@](c2ccccc2)(C2CCCCC2)N1C(=O)OC,25.4 µM
5,Cc1nnc2ccc(-c3cccc(NC(=O)c4ccc(Cl)nc4)c3)nn12,22.1 µM
6,Cc1cccc(N2CCN(C(=O)CCc3nc4ccccc4c(=O)[nH]3)CC2)c1C,> 79 µM (inactive)
7,CC(OC(=O)Cn1[nH]c(=O)c2ccccc2c1=O)C(=O)Nc1cccc(Cl)c1 (stereo not drawn),> 79 µM (inactive)
8,CCOc1ncccc1C(=O)Nc1cccc(-c2nc3cccnc3s2)c1,> 79 µM (inactive)
9,COc1ccc2[nH]c(=O)c(CN(Cc3ccco3)C(c3nnnn3Cc3ccccc3)C(C)C)cc2c1 (stereo not drawn),> 79 µM (inactive)
10,COc1cccc(C(=O)Nc2c(C(N)=O)oc3ccccc23)c1,> 79 µM (inactive)
11,O=C1[C@H]2[C@@H](c3ccc(C(F)(F)F)cc3)N[C@]3(CCCN(Cc4ccc(F)cc4)C3=O)[C@H]2C(=O)N1Cc1ccccc1,> 79 µM (inactive)
12,COc1ccc2nc(Nc3nc(CSc4nc5ccccc5[nH]4)cc(=O)[nH]3)nc(C)c2c1,> 79 µM (inactive)
13,COc1cccc(/C=N/Nc2nc3ccccc3n3cnnc23)c1,> 79 µM (inactive)
14,Cc1ccc(S(=O)(=O)N(C)C)cc1NC(=O)COC(=O)Cc1n[nH]c(=O)c2ccccc12,> 79 µM (inactive)
15,Cn1c(C(=O)Nc2ccc3c(c2)OCCO3)cc2c(=O)n(C)c3ccccc3c21,> 79 µM (inactive)
16,O=c1cc(CN2CCN(S(=O)(=O)c3cccc(Cl)c3)CC2)c2ccc(O)cc2o1,> 79 µM (inactive)
17,COc1cc(/C=C/c2nnc3c4ccccc4ncn23)cc(OC)c1OC,> 79 µM (inactive)
18,COC(=O)Cc1n[nH]c(=O)c2ccccc12,> 79 µM (inactive)
19,Cc1ccc(C(C(=O)NCc2ccccc2)N(Cc2ccco2)C(=O)c2snc(C(N)=O)c2N)o1 (stereo not drawn),> 79 µM (inactive)
20,COc1ccc(CCCNC(=O)C2(C)Cc3c(-c4ccc(NC(C)=O)cc4)ccnc3O2)cc1 (stereo not drawn),> 79 µM (inactive)
21,COC(=O)c1ccc(C(=O)OC)c(NC(=O)COC(=O)C23CC4CC(CC(O)(C4)C2)C3)c1,9.67 µM
22,S=C(Nc1ccc(N2CCOCC2)cc1)Nc1ccc2nc(-c3ccco3)c(-c3ccco3)nc2c1,> 79 µM (inactive)
23,O=C(CN1CCN(c2ccccn2)CC1)Nc1ccc([N+](=O)[O-])cc1C(=O)Nc1ccccc1F,11.3 µM
24,O=C(c1cc(-c2cccnc2)nc2ccc(Br)cc12)N1CCN(c2ncccn2)CC1,9.44 µM

row,Structure (SMILES),IC50
1,COC(=O)c1[nH]c2cc(OC)c(OC)cc2c1/C=N/Nc1ccccc1,> 79 µM (inactive)
2,CCOC(=O)N1CCC(NC(=O)c2cc3c(-c4ccccc4F)nn(C)c3s2)CC1,> 79 µM (inactive)
3,CC(=O)Nc1ccc(C(=O)N/N=C/c2ccccc2OC(=O)c2ccc(Cl)cc2)cc1,11.5 µM
4,CC1Nc2ncnc(N3CCN(c4ccccc4)CC3)c2N(Cc2ccc(Br)cc2)C1=O (stereo not drawn),> 79 µM (inactive)
5,Nc1c(C(=O)NC2CC2)c2nc3ccccc3nc2n1-c1ccc2c(c1)OCO2,> 79 µM (inactive)
6,O=C(Cn1[nH]c(=O)c2ccccc2c1=O)NC1CCCCCC1,> 79 µM (inactive)
7,C[C@H](CO)N1C[C@H](C)[C@@H](CN(C)S(=O)(=O)c2cccs2)Oc2ccc(NC(=O)Nc3ccccc3)cc2C1=O,28.2 µM
8,CCOC(=O)CSc1nc2ccccc2c(=O)[nH]1,> 79 µM (inactive)
9,Cc1ccc(NC(=O)CCc2nc3ccccc3c(=O)[nH]2)cc1S(=O)(=O)N1CCOCC1,> 79 µM (inactive)
10,COc1cccc(Cn2nc(C(=O)O)c3ccccc3c2=O)c1,32.3 µM (inactive)
11,O=C(Nc1cccc(Cl)c1)c1nc[nH]c1C(=O)NCCCNC(=O)c1[nH]cnc1C(=O)Nc1cccc(Cl)c1,> 79 µM (inactive)
12,CCCn1c(NC(=O)c2ccccc2)nc2ccccc21,> 79 µM (inactive)
13,Cc1c(N=Cc2cc(Br)cc(Br)c2O)cccc1C(=O)O,> 79 µM (inactive)
14,COc1ccc(Nc2nc(Nc3ccc(OC)cc3OC)nc(N3CCN(C)CC3)n2)c(OC)c1,43.4 µM (inactive)
15,CN(CC(=O)Nc1cccc(F)c1)C(=O)Cc1n[nH]c(=O)c2ccccc12,> 79 µM (inactive)
16,CCC(Oc1ccccc1)C(=O)Nc1ccccc1C(=O)N1CCCCC1 (stereo not drawn),25.3 µM
17,COCCCNC(=O)/C(C#N)=C1\N=C(NC(=O)c2cccs2)c2ccccc21,> 79 µM (inactive)
18,CCN(CC)C(=O)c1ccc2c3c(cccc13)C(=O)N(CCc1ccc(OC)c(OC)c1)C2=O,11.5 µM
19,Cn1c(=O)c2c(nc(NCc3cccnc3)n2Cc2cccc(C(F)(F)F)c2)n(C)c1=O,> 79 µM (inactive)
20,O=C(/C=C/NNC(=O)c1ccccc1)c1ccc(Br)cc1,> 79 µM (inactive)
21,CCN(CCO)c1ncnc2c1sc1nc(C(C)C)c3c(c12)CC(C)(C)OC3,> 79 µM (inactive)
